Consider one compound from paper PMC11802874, “The hypolipidemic effect of MI-883, the combined CAR agonist/ PXR antagonist, in diet-induced hypercholesterolemia model” (Nature Communications, 2025).

In this data set the test system is primary human hepatocytes (PHH). As to the kind of experiment: RT-qPCR mRNA expression in 2D primary human hepatocytes. Particulars: for CYP2B6 mRNA, RT-qPCR, PHH (Fig. 1g), replicates: ctrl = 1. (Real-time PCR tracks product formation cycle by cycle.)
Setting [1] is: MI-883 1 μM, 24 h, one value per donor.
Where [2] appears, read: single agent 5 μM: MI-883, CITCO (5 μM) alone.

Where “and” joins values, the source holds several entries; their conditions need not be identical. Identical values can stand only once.

From the text: The cells were cultivated as 2D monolayers according to the manufacturer’s protocol.
RT-qPCR was used to examine gene expression in 2D and 3D PHH, HepaRG cells, or in mouse liver or intestine (ileum) samples as we have described before[60]–[62].

For `NC(=O)c1cc(Cn2cc(-c3c(-c4ccc(Cl)cc4)nc4cc(F)ccn34)nn2)ccc1Cl` [MI-883, 2-chloro-5-((4-(2-(4-chlorophenyl)-7-fluoroimidazo[1,2-a]pyridin-3-yl)-1H-1,2,3-triazol-1-yl)methyl)benzamide], the “CYP2B6 mRNA, RT-qPCR, PHH (Fig. 1g), replicates” value was 6.40 and 7.90 and 6.20 (1 mM); 11.50 and 14.10 and 10.70 (5mM). The “CYP2B6 mRNA in PHH 2 donors (Fig. 3c)” value was 18.7857 and 11.1982 (MI-883 1 μM + CITCO (5 μM)); 16.0019 and 18.4588 (MI-883 1 μM + Rif (10 μM)); 9.7833 and 10.0129 under setting [1]; 4.985 and 8.159 (MI-883 5 μM + CITCO (5 μM)); 9.78 and 14.5843 (MI-883 5 μM + Rif (10 μM)); 1.856 and 2.089 (MI-883 10 μM + CITCO (5 μM)). The “CYP2B6 mRNA in PHH 2 donors (Fig. 3c)” value is 2.674 and 5.134 (MI-883 10 μM + Rif (10 μM)); 17.2158 and 12.1241 under setting [2]. In addition, the “CYP3A4 mRNA in PHH 2 donors (Fig. 3c)” value is 1.145 and 0.8997 (MI-883 1 μM + CITCO (5 μM)); 1.152 and 1.035 under setting [1]; 0.35 and 0.4582 (MI-883 10 μM + CITCO (5 μM)); 2.14 and 3.421 (MI-883 10 μM + Rif (10 μM)); 0.6604 and 0.7133 under setting [2]; 0.3215 and 0.4561 (single agent 10 μM: MI-883, Rif (10 μM) alone).
